Experimental data published in US6503931B1, “Use of 4-amino pyridine for treatment of peripheral neuropathies” (The UAB Research Foundation, priority 1999, dated 2003).

Legend:
Format in all cases: in vivo, human
subjects with GBS [1] = experiment: Motor strength on 0-5 ordinal scale, Phase I double-blind placebo controlled crossover study
From the text: This was a Phase I double-blind, placebo controlled, crossover, dose escalating study in subjects with GBS similar to those proposed for MS and SCI. An initial trial of ten patients will be randomized to […] of the two treatment sequences (A or B) as shown below. The study population consists of subjects with GBS injury whose neurological status has been stable for at least eighteen months. Ten subjects will be enrolled. Motor strength was rated on the traditional 0-5 ordinal scale: 0—absent motor strength 1—trace motor strength 2—can move the specified joint but only with gravity eliminated 3—can move the joint against gravity but not against any opposing force 4—can move the joint against opposing force but the strength is not normal for the person or symmetrical 5—normal motor strength This scale was employed to measure the following motor strength for each of these joint motions on both the right and the left sides: hip flexion, hip adduction, hip abduction, knee flexion, knee extension, ankle dorsi-flexion, ankle plantar flexion, shoulder abduction, elbow extension, elbow flexion, wrist flexion, and wrist extension. [table]

subjects with GBS [2] = experiment: Hand grip strength on hand dynamometer, same study; conditions: hand-held dynamometer; p=0.0243 paired Student's t-test; repeated measures ANOVA p=0.0715; FIG. 3
Procedure: This was a Phase I double-blind, placebo controlled, crossover, dose escalating study in subjects with GBS similar to those proposed for MS and SCI. An initial trial of ten patients will be randomized to […] of the two treatment sequences (A or B) as shown below. The study population consists of subjects with GBS injury whose neurological status has been stable for at least eighteen months. Ten subjects will be enrolled. Hand grip strength was measured on a hand dynamometer that had been calibrated. Each patient was given three trials separated by thirty second rest periods and the strongest of the three measurements was recorded for each hand. [table]

subjects with GBS [3] = experiment: Serum laboratories drawn at start and every week of the study
From the text: This was a Phase I double-blind, placebo controlled, crossover, dose escalating study in subjects with GBS similar to those proposed for MS and SCI. An initial trial of ten patients will be randomized to […] of the two treatment sequences (A or B) as shown below.
The study population consists of subjects with GBS injury whose neurological status has been stable for at least eighteen months. Ten subjects will be enrolled.
In addition, serum laboratories were drawn at the beginning of the study and every week of the study. The serum laboratories included glucose, blood urea nitrogen, creatinine, uric acid, calcium, total protein, albumin, phosphate, total bilirubin, cholesterol, LDH, SGOT/AST, alkaline phosphatase, hematocrit, hemoglobin, red blood cell count, platelet count, and white blood cell count with differential.

[4] = serum laboratory, before change
[5] = serum laboratory, statistically significant, not clinically significant

Nc1ccncc1 [4-aminopyridine]
Lower extremity strength, average motor score on the active medication (subjects with GBS [1]; 0-5 scale, 10-20 mg bid escalating, p<0.0001, Friedeman's, FIG. 1): 3.7
Upper extremity strength, average motor score after increase (subjects with GBS [1]; 0-5 scale, 10-20 mg bid escalating, p=0.0065, Friedeman's, FIG. 2): 3.7
Upper extremity strength, average motor score, starting value (subjects with GBS [1]; 0-5 scale, value before increase, FIG. 2): 3.2
Lower extremity strength, average motor score, starting value (subjects with GBS [1]; 0-5 scale, value before increase, seven GBS patients, FIG. 1): 3.2
Duration of neural biological effects after stopping the drug (subjects with GBS [1]; patients on active agent first, motor and grip strength continued to drop for up to two additional weeks after one week washout): more than two weeks
Grip strength, start of study compared to after four weeks of treatment (subjects with GBS [2]): increased significantly
Hematocrit, starting value (subjects with GBS [3]; before change): 42.7
All other laboratories, change while on the active agent (subjects with GBS [3]; glucose, BUN, creatinine, calcium, proteins, bilirubin, cholesterol, LDH, alkaline phosphatase, blood counts etc.): no significant change
SGOT, starting value (subjects with GBS [3]; [4]): 25.1
Uric acid, starting value (subjects with GBS [3]; [4]): 6.4
SGOT, after change on the active agent (subjects with GBS [3]; [5]): 27.9
Uric acid, after change on the active agent (subjects with GBS [3]; [5]): 6.5
Hematocrit, after change on the active agent (subjects with GBS [3]; statistically significant, not clinically significant): 41.6
